ChEMBL document CHEMBL1201862, “PubChem BioAssay data set” (2004)
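Where inhibition never reached the appropriate level, the endpoint shown equals the highest concentration tested. Otherwise, values were interpolated linearly from a five-concentration, 48-hour dose response in 96-well plates. GI50: concentration for 50% inhibition of growth.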 Activity calls are given as the source filed them. Rule as the data show it: active = GI50 up to about 1.1 µM and inactive = higher.

What was measured:
Assay in all cases: inhibition of tumour cell growth, NCI panel, 48 h
DU-145 = system: DU-145
SK-MEL-2 = system: SK-MEL-2
SF-295 = system: SF-295
UO-31 = system: UO-31
HT-29 = system: HT-29
IGROV-1 = system: IGROV-1
UACC-257 = system: UACC-257
MDA-MB-435 = system: MDA-MB-435
OVCAR-3 = system: OVCAR-3
SF-268 = system: SF-268
SK-MEL-5 = system: SK-MEL-5
NCI-H522 = system: NCI-H522
M14 = system: M14
SK-MEL-28 = system: SK-MEL-28
HCC 2998 = system: HCC 2998
UACC-62 = system: UACC-62
OVCAR-4 = system: OVCAR-4
NCI-H460 = system: NCI-H460
ACHN = system: ACHN
T47D = system: T47D

SMILES | GI50 (DU-145) | GI50 (SK-MEL-2) | GI50 (SF-295) | GI50 (UO-31) | GI50 (HT-29) | GI50 (IGROV-1) | GI50 (UACC-257) | GI50 (MDA-MB-435) | GI50 (OVCAR-3) | GI50 (SF-268) | GI50 (SK-MEL-5) | GI50 (NCI-H522) | GI50 (M14) | GI50 (SK-MEL-28) | GI50 (HCC 2998) | GI50 (UACC-62) | GI50 (OVCAR-4) | GI50 (NCI-H460) | GI50 (ACHN) | GI50 (T47D)
C#CC1(O)C(COP(=O)(O)OCC2OC(n3ccc(NCCCCCCCCCCCCCCCCCC)nc3=O)C(O)C2O)OC(n2ccc(N)nc2=O)C1O (stereo not given) | 0.279 µM (active) | 0.67 µM (active) | 0.349 µM (active) | 0.0716 µM (active) | 0.518 µM (active) | 0.218 µM (active) | 4.05 µM (inactive) | 0.575 µM (active) | 2.59 µM (inactive) | 1.34 µM (inactive) | 1.23 µM (inactive) | 0.032 µM (active) | 0.254 µM (active) | 1.78 µM (inactive) | 0.703 µM (active) | 0.614 µM (active) | 1.82 µM (inactive) | 0.0519 µM (active) | 0.175 µM (active) | 1.18 µM (inactive)
C=C[C@@]1(C)CC2(C=C(CO)C(O)O2)Oc2c1c(=O)oc1cccc(C)c21 (stereo not given in full) | 13.9 µM (inactive) | 4.1 µM (inactive) | 27.7 µM (inactive) | 5.31 µM (inactive) | 4.69 µM (inactive) | 13.8 µM (inactive) | 14.7 µM (inactive) | 3.57 µM (inactive) | 3.16 µM (inactive) | 3.25 µM (inactive) | 12.7 µM (inactive) | 2.33 µM (inactive) | 3.52 µM (inactive) | 7.74 µM (inactive) | 20.9 µM (inactive) | 10.2 µM (inactive) | 3.78 µM (inactive) | 19.8 µM (inactive) | 7.78 µM (inactive) | 10.7 µM (inactive)
C=C1C(=O)OC2C1C(=O)C/C(C)=C/CCC1(C)OC21 (stereo not given) | 17.4 µM (inactive) | 18.5 µM (inactive) | 52.7 µM (inactive) | 15.2 µM (inactive) | 20.6 µM (inactive) | 20.1 µM (inactive) | 20.1 µM (inactive) | 15.4 µM (inactive) | 15.1 µM (inactive) | 19.6 µM (inactive) | 19.3 µM (inactive) | 3.63 µM (inactive) | 15.6 µM (inactive) | 15.2 µM (inactive) | 18.9 µM (inactive) | 25.5 µM (inactive) | 18.7 µM (inactive) | 21.2 µM (inactive) | 10.5 µM (inactive) | 11.2 µM (inactive)
NC(=S)SCCC(=O)O | > 100 µM (inactive) | > 100 µM (inactive) | > 100 µM (inactive) | > 100 µM (inactive) | > 100 µM (inactive) | > 100 µM (inactive) | > 100 µM (inactive) | > 100 µM (inactive) | > 100 µM (inactive) | > 100 µM (inactive) | > 100 µM (inactive) | > 100 µM (inactive) | > 100 µM (inactive) | > 100 µM (inactive) | > 100 µM (inactive) | > 100 µM (inactive) | > 100 µM (inactive) | > 100 µM (inactive) | > 100 µM (inactive) | 43.2 µM (inactive)
COC(=O)C1(Cc2cccc(C)c2)Cc2c(C)cccc2C1=O (stereo not given) | > 100 µM (inactive) | 32.7 µM (inactive) | 38.2 µM (inactive) | 42.6 µM (inactive) | 29.6 µM (inactive) | 46.9 µM (inactive) | 82.8 µM (inactive) | 14.1 µM (inactive) | 24.5 µM (inactive) | 58.5 µM (inactive) | 38.5 µM (inactive) | 22.6 µM (inactive) | 34.4 µM (inactive) | > 100 µM (inactive) | 55.5 µM (inactive) | 46.8 µM (inactive) | 41.7 µM (inactive) | 45.4 µM (inactive) | > 100 µM (inactive) | 28.4 µM (inactive)
